Assays:
Cannabinoid receptor 2 = Cannabinoid receptor 2 (Homo sapiens, UniProt P34972); assay: CB Receptor Radioligand Binding Assay (Ki)
Method: IC50 values for test compounds were determined from nonlinear regression analysis of data collected from ligand displacement experiments. The inhibition constant (Ki) was calculated from IC50 value by the Cheng and Prusoff equation.

[1] = molecular target: Transient receptor potential cation channel subfamily V member 1 (Homo sapiens, UniProt Q8NER1); assay: TRPV1 Channel Activity Assay
Method: The effect of the substances on Ca2+ influx was determined by using HEK-293 cells stably overexpressing recombinant human TRPV1 cDNA. The cells were loaded with Fluo-4, a selective intracellular fluorescent probe for Ca2+. Experiments were carried out by measuring cell fluorescence before and after the addition of the test compounds at various concentrations. Agonist activity was determined in comparison to the maximum Ca2+ influx due to the application of 4 uM ionomycin. EC50 values were determined as the concentration of test substances required to produce half-maximal increases in [Ca2+]i. All determinations were at least performed in triplicate. Curve fitting (sigmoidal dose-response variable slope) and parameter estimation were performed with GraphPad Prism (GraphPad Software Inc., San Diego, CA).

Chain of Transient receptor potential cation channel subfamily V member 1 (Q8NER1 whole entry): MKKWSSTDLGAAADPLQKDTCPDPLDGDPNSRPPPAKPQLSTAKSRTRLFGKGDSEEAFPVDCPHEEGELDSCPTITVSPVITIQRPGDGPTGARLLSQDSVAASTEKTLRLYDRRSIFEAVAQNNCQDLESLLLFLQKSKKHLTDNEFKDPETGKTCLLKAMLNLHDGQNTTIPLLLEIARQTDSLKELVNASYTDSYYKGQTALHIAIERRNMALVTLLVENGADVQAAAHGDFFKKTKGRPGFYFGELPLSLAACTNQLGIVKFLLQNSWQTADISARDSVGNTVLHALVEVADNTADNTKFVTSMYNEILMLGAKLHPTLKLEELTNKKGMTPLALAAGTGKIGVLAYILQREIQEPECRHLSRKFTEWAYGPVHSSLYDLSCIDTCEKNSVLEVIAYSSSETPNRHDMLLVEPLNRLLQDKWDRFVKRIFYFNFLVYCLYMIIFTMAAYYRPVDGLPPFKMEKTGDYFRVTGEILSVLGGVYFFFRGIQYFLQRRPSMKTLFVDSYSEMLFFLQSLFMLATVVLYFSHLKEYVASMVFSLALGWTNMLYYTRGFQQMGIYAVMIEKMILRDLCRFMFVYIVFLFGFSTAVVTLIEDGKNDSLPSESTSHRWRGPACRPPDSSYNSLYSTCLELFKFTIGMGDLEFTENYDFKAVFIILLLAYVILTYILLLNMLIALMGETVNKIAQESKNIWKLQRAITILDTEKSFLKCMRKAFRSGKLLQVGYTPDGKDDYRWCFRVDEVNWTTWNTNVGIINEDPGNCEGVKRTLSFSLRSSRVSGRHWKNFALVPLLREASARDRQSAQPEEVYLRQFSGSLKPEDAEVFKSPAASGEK
Chain of Cannabinoid receptor 2 (P34972 whole entry): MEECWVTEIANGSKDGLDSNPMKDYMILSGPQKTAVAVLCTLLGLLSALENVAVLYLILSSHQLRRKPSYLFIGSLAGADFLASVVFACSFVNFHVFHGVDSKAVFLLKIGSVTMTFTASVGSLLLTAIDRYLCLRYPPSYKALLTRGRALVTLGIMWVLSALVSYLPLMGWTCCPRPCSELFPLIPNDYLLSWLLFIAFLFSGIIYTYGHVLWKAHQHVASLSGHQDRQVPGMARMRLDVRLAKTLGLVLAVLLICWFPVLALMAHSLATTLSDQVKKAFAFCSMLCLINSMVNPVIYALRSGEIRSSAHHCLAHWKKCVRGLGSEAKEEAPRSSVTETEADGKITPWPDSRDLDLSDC

| Compound | Ki (Cannabinoid receptor 2) [µM] | EC50 [1] [µM] |
| --- | --- | --- |
| CCCCCCCC/C=C\CCCCCCCC(=O)N[C@H]1C[C@@H]1O [cyclopropanolamide, 11b] | 2.42 | 0.019 |
| CCCCCCCC/C=C\CCCCCCCC(=O)N[C@H]1C[C@H]1O [cyclopropanolamide, 14b] | 1.63 | 0.18 |

— BindingDB's records for doi:10.1021/jm900130m (Universita Del Piemonte Orientale, 2009)
